Results published in paper PMC10254170, “Diastereoselective Synthesis of the Borylated D-Galactose Monosaccharide 3-Boronic-3-Deoxy-D-Galactose and Biological Evaluation in Glycosidase Inhibition and in Cancer for Boron Neutron Capture Therapy (BNCT)” (Molecules, 2023).

Assays:
[1] = system: ADDP (Cis Res Ovarian) cell line; test: Cancer screening (MTT growth inhibition), ADDP; assay type: cell-based
Procedure: (§1) All test agents were prepared as stock solutions (20 mM) in dimethyl sulfoxide (DMSO) and stored at −20 °C. Cell lines used in the study included: HT29 (colorectal carcinoma), U87 and SJ-G2 (glioblastoma), MCF-7 (breast carcinoma), A2780 (ovarian carcinoma), H460 (lung carcinoma), A431 (skin carcinoma), Du145 (prostate carcinoma), BE2-C (neuroblastoma), MiaPaCa-2 (pancreatic carcinoma), SMA560 (spontaneous murine astrocytoma), and ADDP (Cis Res Ovarian), together with one non-tumor-derived normal breast cell line (MCF10A). All cell lines were incubated in a humidified atmosphere with 5 % CO2 at 37 °C. […]
(§2) Growth inhibition was determined by plating cells in duplicate in medium (100 µL) at a density of 2500–4000 cells per well in 96-well plates. […] After 72 h of drug exposure, growth inhibitory effects were evaluated using the (3-(4,5-dimethyltiazol-2-yl)-2,5-diphenyltetrazolium bromide) (MTT) assay and absorbance read at 540 nm. The percentage growth inhibition was calculated at a fixed concentration of 25 µM, based on the difference between the optical density values on day 0 and those at the end of drug exposure. Each data point is the mean ± the standard error of the mean (SEM) calculated from three replicates, which were performed on separate occasions and in separate cell line passages.

[2] = system: all cell lines (cancer cell lines and normal cell line); test: Cancer screening, all cell lines; assay type: cell-based; settings: all cancer cell lines and the normal cell line
Procedure: as §1, §2

[3] = Solubility in water; assay type: physicochemical

SMILES	inhibition at 25 µM ([1]; 25 µM of drug, 72 h, MTT) [%]	GI50 ([1]; dose response, unit from table title) [µM]	GI50 [2] [µM]	solubility in water [3]
OCC1OC(O)C(O)C(B(O)O)C1O [Compound 7, 3-Boronic-3-Deoxy-D-galactose]	2	> 50	> 50	soluble in water
CC1(C)OCC(C2OC3OC(C)(C)OC3C2[B-]23OCC[NH+]2CCO3)O1 [Compound 6, 3-Deoxy-3-Boronodiethanolamine-1,2:5,6-Di-O-isopropylidene-α-D-galactofuranose]	–	–	> 50	soluble in water
